According to patent publication US10364263B2, “Cyclic phosphates and cyclic phosphoramidates for the treatment of neurologic disorders” (Retrophin, Inc., priority 2015, dated 2019):
Read-outs that look alike come from different tables or passages of the source.

What was measured:
[1] = Stability in human plasma; format: in vitro ADME; details: 37° C.
Outline: (§1)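 Test compound at 3 μM (0.1% DMSO) was incubated in mouse or human plasma at 37 °C and sampled in duplicate at 0, 10, 20, 30, 40 and 60 min. Reactions were stopped with acetonitrile/formic acid containing internal standard. Remaining parent was measured by UPLC-MS/MS without a calibration curve.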

[2] = Stability in mouse plasma; format: in vitro ADME
Outline: as §1

[3] = Stability in human hepatocytes; format: in vitro ADME; details: for half-life at 5 µM: t1/2, Human Hepatocytes; for half-life: 5 μM, 1 million cells/ml, 37° C., human hepatocytes
Experimental: (§2) Stability in hepatocytes for select compounds disclosed in the application was evaluated in two species (mouse and human) according to the following procedure. Compounds and positive control samples were dissolved in 100% DMSO at 5 mM. Cryopreserved hepatocytes were thawed and resuspended in Hepatocyte Basal Medium (HBM-Lonza CC-3199) supplemented with CC-4182 (complete hepatocyte culture medium). Test compounds were diluted into cell suspension (1 million cells/ml) from the stock solutions to have a test compound concentration of 5 μM (0.1% DMSO). Incubation was performed in 24-well plates, at 37° C. in a DUBNOFF water bath, under low shaking. Each compound was tested at 6 time points, in duplicates (0, 15, 30, 60, 120 and 240 min). At each time point, an aliquot of 120 μl was taken and transferred to a 96-well deep plate. The reaction was stopped with the addition of one volume of 100% acetonitrile plus 0.1% formic acid and the appropriate internal standard. Then samples were centrifuged at 1100×g for 30 min at +4° C. and supernatants were transferred to a new 96-deepwell plate. Samples were evaporated under N2 and reconstituted in H2O/ACN 0.1% Formic Acid (98:2). Analysis was performed without a calibration curve (Acquity UPLC-Waters; Sciex API4000). Time 0 was obtained adding acetonitrile before addition of the test compound. […] The half-life (t1/2) expressed in hours is derived using Equation 1 as shown in Example 64.

[4] = test system: PANK2 silenced human neuroblastoma IMR32 cells (PANK2−/−); assay: Coenzyme A assay in PANK2 silenced cells (LC-MS quantification of free CoA); format: cell-based; details: compound added twice (24 h + 24 h), relative to 0.1% DMSO controls
Outline: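 Free intracellular CoA was measured by positive-mode LC-MS/MS of 20% TFA extracts, taking 2 μl per 10^6 cells as intracellular volume. Cells were IMR32 with stable lentiviral PANK2 knockdown, dosed twice 24 h apart (48 h total, 0.1% DMSO). Output is fold increase over vehicle.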

[5] = Stability in mouse hepatocytes; format: in vitro ADME
Experimental: as §2

[6] = human, plasma, Diastereoisomer A (upfield shift in 31P NMR), read-out: t1/2, Human Plasma, Diastereoisomer A (converted)
[7] = human, plasma, Diastereoisomer B, read-out: t1/2, Human Plasma, Diastereoisomer B (converted)
[8] = t1/2, Mouse Hepatocytes, Diastereoisomer A
[9] = t1/2, Mouse Hepatocytes, Diastereoisomer B
[10] = Diastereoisomer A (upfield shift in 31P NMR), read-out: t1/2, Human Plasma, Diastereoisomer A (converted)
[11] = Diastereoisomer A (upfield shift in 31P NMR), 3 μM, 37° C., mouse plasma, read-out: t1/2, Mouse Plasma, Diastereoisomer A
[12] = Diastereoisomer A (upfield shift in 31P NMR), read-out: t1/2, Human Hepatocytes, Diastereoisomer A (converted)
[13] = Diastereoisomer A (upfield shift in 31P NMR), 5 μM, 1 million cells/ml, 37° C., mouse hepatocytes, read-out: t1/2, Mouse Hepatocytes, Diastereoisomer A (converted)

| half-life at 3 µM [1, 6] | half-life at 3 µM [1, 7] | half-life at 3 µM ([2]; mouse, plasma) | t1/2, Mouse Plasma, Diastereoisomer B ([2]; mouse, plasma, 3 µM) | half-life at 5 µM ([3]; Diastereoisomer A) | half-life at 5 µM ([3]; Diastereoisomer B) | half-life at 5 µM [5, 8] | half-life at 5 µM [5, 9] | Structure (SMILES) | PANK2−/− CoA (Fold Increase): fold increase in Coenzyme A (CoA) levels relative to controls [4] | half-life at 3 µM [1, 10] | t1/2, Human Plasma, Diastereoisomer B ([1]; Diastereoisomer B, 3 μM) | half-life at 3 µM [2, 11] | t1/2, Mouse Plasma, Diastereoisomer B ([2]; Diastereoisomer B, 3 μM, 37° C., mouse plasma) | half-life [3, 12] | half-life ([3]; Diastereoisomer B, read-out: t1/2, Human Hepatocytes, Diastereoisomer B (converted)) | half-life at 5 µM [5, 13] | half-life at 5 µM ([5]; Diastereoisomer B, 5 μM, 1 million cells/ml, 37° C., mouse hepatocytes, read-out: t1/2, Mouse Hepatocytes, Diastereoisomer B (converted)) |
| --- | --- | --- | --- | --- | --- | --- | --- | --- | --- | --- | --- | --- | --- | --- | --- | --- | --- |
| > 60 min | < 9.6 min | < 9.6 min | <9.6 min | < 15 min | < 15 min | < 15 min | < 15 min | CC(C)(C)C(=O)OCOP1(=O)OCC(C)(C)[C@H](C(=O)NCCC(=O)OCc2ccncc2)O1 (stereo in doubt) [Compound No. 71, (((2S,4R)-5,5-dimethyl-2-oxido-4-((3-oxo-3-(pyridin-4-ylmethoxy)propyl)carbamoyl)-1,3,2-dioxaphosphinan-2-yl)oxy)methyl pivalate] | 39.37 Fold Increase |  |  |  |  |  |  |  |  |
| > 60 min | > 60 min | < 9.6 min | <9.6 min | 31.8 min | < 15 min | 28.2 min | 24 min | COC(=O)CCNC(=O)[C@@H]1OP(=O)(N[C@H](C(=O)OCc2ccccc2)C(C)C)OCC1(C)C (stereo partly drawn) [compound 13, benzyl ((4R)-4-((3-methoxy-3-oxopropyl)carbamoyl)-5,5-dimethyl-2-oxido-1,3,2-dioxaphosphinan-2-yl)-L-valinate] | 1 Fold Increase |  |  |  |  |  |  |  |  |
| > 60 min | > 60 min | < 9.6 min | <9.6 min | 18.6 min | < 15 min | < 15 min | < 15 min | COC(=O)CCNC(=O)[C@@H]1OP(=O)(N[C@@H](Cc2ccc(OC(C)(C)C)cc2)C(=O)OC(C)(C)C)OCC1(C)C (stereo partly shown) [compound 15] | 0.5 Fold Increase |  |  |  |  |  |  |  |  |
| < 9.6 min | 57.6 min | < 9.6 min | <9.6 min | > 240 min | > 240 min | 70.8 min | 33 min | COC(=O)CCNC(=O)[C@@H]1OP(=O)(N[C@@H](C)C(=O)OC[C@H]2CCC(=O)N2)OCC1(C)C (stereo partly drawn) [compound 23, methyl 3-((4R)-5,5-dimethyl-2-oxido-2-(((S)-1-oxo-1-(((R)-5-oxopyrrolidin-2-yl)methoxy)propan-2-yl)amino)-1,3,2-dioxaphosphinane-4-carboxamido)propanoate] | 2.08 Fold Increase |  |  |  |  |  |  |  |  |
| > 60 min |  | < 9.6 min |  | > 240 min |  | 36 min |  | COC(=O)CCNC(=O)[C@@H]1OP(=O)(N[C@@H](Cc2cccnc2)C(=O)OC)OCC1(C)C (stereo partly drawn) [compound 25, (2S)-methyl 2-(((4R)-4-((3-methoxy-3-oxopropyl)carbamoyl)-5,5-dimethyl-2-oxido-1,3,2-dioxaphosphinan-2-yl)amino)-3-(pyridin-3-yl)propanoate] | 0.95 Fold Increase |  |  |  |  |  |  |  |  |
| > 60 min | > 60 min | < 9.6 min | <9.6 min | 18.6 min | < 15 min | < 15 min | < 15 min | COC(=O)CCNC(=O)[C@@H]1OP(=O)(N[C@H](C)C(=O)OCCc2ccccc2)OCC1(C)C (stereo partly drawn) [compound 26, methyl 3-((4R)-5,5-dimethyl-2-oxido-2-(((R)-1-oxo-1-phenethoxypropan-2-yl)amino)-1,3,2-dioxaphosphinane-4-carboxamido)propanoate] | 2.29 Fold Increase |  |  |  |  |  |  |  |  |
| > 60 min | > 60 min | < 9.6 min | <9.6 min | 36 min | 15.6 min | < 15 min | < 15 min | COC(=O)CCNC(=O)[C@@H]1OP(=O)(N[C@@H](Cc2cncs2)C(=O)OCc2ccccc2)OCC1(C)C (stereo partly drawn) [compound 29, benzyl (2S)-2-(((4R)-4-((3-methoxy-3-oxopropyl)carbamoyl)-5,5-dimethyl-2-oxido-1,3,2-dioxaphosphinan-2-yl)amino)-3-(thiazol-5-yl)propanoate] | 1.17 Fold Increase |  |  |  |  |  |  |  |  |

The next lines start with the compound.

| Structure (SMILES) | half-life at 3 µM [1, 6] | half-life at 3 µM [1, 7] | half-life at 3 µM ([2]; mouse, plasma) | t1/2, Mouse Plasma, Diastereoisomer B ([2]; mouse, plasma, 3 µM) | half-life at 5 µM ([3]; Diastereoisomer A) | half-life at 5 µM ([3]; Diastereoisomer B) | half-life at 5 µM [5, 8] | half-life at 5 µM [5, 9] | PANK2−/− CoA (Fold Increase): fold increase in Coenzyme A (CoA) levels relative to controls [4] | half-life at 3 µM [1, 10] | t1/2, Human Plasma, Diastereoisomer B ([1]; Diastereoisomer B, 3 μM) | half-life at 3 µM [2, 11] | t1/2, Mouse Plasma, Diastereoisomer B ([2]; Diastereoisomer B, 3 μM, 37° C., mouse plasma) | half-life [3, 12] | half-life ([3]; Diastereoisomer B, read-out: t1/2, Human Hepatocytes, Diastereoisomer B (converted)) | half-life at 5 µM [5, 13] | half-life at 5 µM ([5]; Diastereoisomer B, 5 μM, 1 million cells/ml, 37° C., mouse hepatocytes, read-out: t1/2, Mouse Hepatocytes, Diastereoisomer B (converted)) |
| --- | --- | --- | --- | --- | --- | --- | --- | --- | --- | --- | --- | --- | --- | --- | --- | --- | --- |
| CCC(CC)C(=O)OCOP1(=O)OCC(C)(C)[C@H](C(=O)NCCC(=O)OC)O1 (stereo partly drawn) [Compound No. 67, (((4R)-4-((3-methoxy-3-oxopropyl)carbamoyl)-5,5-dimethyl-2-oxido-1,3,2-dioxaphosphinan-2-yl)oxy)methyl 2-ethylbutanoate] | > 60 min | < 9.6 min | < 9.6 min | <9.6 min | < 15 min | < 15 min | < 15 min | < 15 min | 122.4 Fold Increase |  |  |  |  |  |  |  |  |
| COC(=O)CCNC(=O)[C@@H]1OP(=O)(OCOC(=O)c2ccc(CN3CCCC3)cc2)OCC1(C)C (stereo partly drawn) [Compound No. 76, (((4R)-4-((3-methoxy-3-oxopropyl)carbamoyl)-5,5-dimethyl-2-oxido-1,3,2-dioxaphosphinan-2-yl)oxy)methyl 4-(pyrrolidin-1-ylmethyl)benzoate] | < 9.6 min | < 9.6 min | < 9.6 min | <9.6 min | 31.2 min | < 15 min | < 15 min | < 15 min | 79.95 Fold Increase |  |  |  |  |  |  |  |  |
| COC(=O)CCNC(=O)[C@@H]1OP(=O)(N[C@H](C(=O)OC)C(C)C)OCC1(C)C (stereo partly drawn) [compound 1, (2S)-methyl 2-(((4R)-4-((3-methoxy-3-oxopropyl)carbamoyl)-5,5-dimethyl-2-oxido-1,3,2-dioxaphosphinan-2-yl)amino)-3-methylbutanoate] |  |  |  |  |  |  |  |  | 1.51 Fold Increase | > 60 min | >60 min | < 9.6 min | <9.6 min | 77.4 min | 78.6 min | 25.8 min | < 15 min |
| COC(=O)CCNC(=O)[C@@H]1OP(=O)(N[C@@H](Cc2ccccc2)C(=O)OC(C)(C)C)OCC1(C)C (stereo partly shown) [compound 4] |  |  |  |  |  |  |  |  | 1.2 Fold Increase | > 60 min |  | < 9.6 min |  | 26.4 min |  | 34.8 min |  |
| COC(=O)CCNC(=O)[C@@H]1OP(=O)(N[C@H](C(=O)OC(C)(C)C)C2CCCCC2)OCC1(C)C (stereo partly drawn) [compound 14, methyl 3-((4R)-2-(((S)-2-(tert-butoxy)-1-cyclohexyl-2-oxoethyl)amino)-5,5-dimethyl-2-oxido-1,3,2-dioxaphosphinane-4-carboxamido)propanoate] | > 60 min | > 60 min | < 9.6 min | <9.6 min | 17.4 min | < 15 min | < 15 min | < 15 min | 1.59 Fold Increase |  |  |  |  |  |  |  |  |
